Activity and inhibition data for 17 compounds are collected here from ChEMBL document CHEMBL1221340, “Lanostane triterpenes from Ganoderma lucidum suppress the adipogenesis in 3T3-L1 cells through down-regulation of SREBP-1c” (Bioorg Med Chem Lett, 2010).

Data set [1] concerns 3T3-L1. In words: Cytotoxicity against mouse 3T3L1 cells assessed as cell viability at up to 40 ug/ml. Type of data set: cell-based.
For data set [2], the system named is 3T3-L1. In words: Inhibition of adipogenesis in mouse 3T3L1 cells assessed as reduction of triglyceride accumulation at 80 ug/ml after 8 days. The class given is functional.
Data set [3] has as its system 3T3-L1. Description: Inhibition of adipogenesis in mouse 3T3L1 cells assessed as reduction of GPDH activity at 80 ug/ml after 8 days. Type of data set: functional.
In data set [4] the test system is 3T3-L1. Description: Cytotoxicity against mouse 3T3L1 cells assessed as cell viability at up to 80 ug/ml. The class given is cell-based.
The subject of data set [5] is 3T3-L1. Description: Inhibition of adipogenesis in mouse 3T3L1 cells assessed as reduction of lipid accumulation at 40 ug/ml after 8 days relative to control. Type of data set: functional. Particulars: 3T3-L1, 192 h.
Data set [6] relates to 3T3-L1. In words: Inhibition of adipogenesis in mouse 3T3L1 cells assessed as reduction of SREBP1c mRNA expression at 80 ug/ml after 8 days by RT-PCR analysis relative to control. The note with it: 3T3-L1, 192 h. The class given is functional.
Data set [7] relates to 3T3-L1. In words: Inhibition of adipogenesis in mouse 3T3L1 cells assessed as reduction of SREBP1c protein expression at 80 ug/ml after 8 days by Western blotting analysis. Type of data set: functional, cell-based. In general terms: In western blotting, separated proteins are transferred to a membrane and probed.
The test system of data set [8] is 3T3-L1. Description: Inhibition of adipogenesis in mouse 3T3L1 cells assessed as reduction of FAS mRNA expression at 80 ug/ml after 8 days by RT-PCR analysis. The class given is functional, cell-based.
In data set [9] the test system is 3T3-L1. In words: Inhibition of adipogenesis in mouse 3T3L1 cells assessed as reduction of ACC mRNA expression at 80 ug/ml after 8 days by RT-PCR analysis. Type of data set: functional, cell-based.

Activity calls are given as the source filed them. The rule behind the calls is not given here.

A word on the inhibition: it is the change of the read-out against control, counted positive when it falls.

As for `CC(CC(=O)C[C@@H](C)[C@H]1CC(=O)[C@@]2(C)C3=C(C(=O)C[C@]12C)[C@@]1(C)CC[C@H](O)C(C)(C)[C@@H]1C[C@@H]3O)C(=O)O` (stereo partly specified) [GANODERIC ACID B], in the data set on 3T3-L1 [1], the Activity entry is listed as “Non-toxic”. The inhibition entry in the data set with 3T3-L1 [2] and in the data set on 3T3-L1 [3] was “Active” in each case.
As for `COC(=O)CC[C@@H](C)[C@H]1CC(=O)[C@@]2(C)C3=C(C(=O)[C@@H](OC(C)=O)[C@]12C)[C@@]1(C)CC[C@H](O)C(C)(C)[C@@H]1CC3=O` [METHYL LUCIDENATE E2], the Activity result in the data set with 3T3-L1 [1] is “Non-toxic”.
On to `C[C@H](CC(=O)C[C@@H](C)[C@H]1C[C@H](O)[C@@]2(C)C3=C(C(=O)C[C@]12C)[C@@]1(C)CCC(=O)C(C)(C)[C@@H]1C[C@@H]3O)C(=O)O` [GANODERIC ACID A], for which the Activity entry in the data set with 3T3-L1 [1] and in the data set on 3T3-L1 [4] was “Non-toxic” in each case. Further, the inhibition at 80 µg/mL in the data set with 3T3-L1 [2] (3T3-L1, 192 h) was 36%; in the data set on 3T3-L1 [3] (3T3-L1, 192 h), 48%.
`COC(=O)CC[C@@H](C)[C@H]1CC(=O)[C@@]2(C)C3=C(C(=O)[C@@H](OC(C)=O)[C@]12C)[C@@]1(C)CC[C@H](O)C(C)(C)[C@@H]1C[C@@H]3O` [METHYL LUCIDENATE P]: the Activity result with 3T3-L1 [1] is on record as “Non-toxic”.
Consider `CCCCOC(=O)[C@H](C)CC(=O)C[C@@H](C)[C@H]1CC(=O)[C@@]2(C)C3=C(C(=O)C[C@]12C)[C@@]1(C)CC[C@H](O)C(C)(C)[C@@H]1C[C@@H]3O` [BUTYL GANODERATE B], for which the Activity entry in the data set on 3T3-L1 [1] is listed as “Non-toxic”. The inhibition at 40 µg/mL in the data set on 3T3-L1 [5] amounted to 41%. The inhibition entry with 3T3-L1 [2] and with 3T3-L1 [3] was “Active” in each case.
Turning to `CCCCOC(=O)CC[C@@H](C)[C@H]1CC(=O)[C@@]2(C)C3=C(C(=O)C[C@]12C)[C@@]1(C)CCC(=O)C(C)(C)[C@@H]1C[C@@H]3O` [BUTYL LUCIDENATE A], in the data set on 3T3-L1 [1], the Activity result is on record as “Non-toxic”. Moreover, the inhibition at 40 µg/mL with 3T3-L1 [5] amounted to 45%.
For the compound `CC(CC(=O)C[C@@H](C)[C@H]1C[C@H](O)[C@@]2(C)C3=C(C(=O)C[C@]12C)[C@@]1(C)CCC(=O)C(C)(C)[C@@H]1CC3)C(=O)O` (stereo partly specified) [GANOLUCIDIC ACID A], the Activity entry with 3T3-L1 [1] is “Non-toxic”.
The same measure, in the same setting: the value for `COC(=O)C(C)CC(=O)C[C@@H](C)[C@H]1CC(=O)[C@@]2(C)C3=C(C(=O)[C@@H](OC(C)=O)[C@]12C)[C@@]1(C)CC[C@H](O)C(C)(C)[C@@H]1CC3=O` (stereo partly specified) [METHYL GANODERATE H] was “Non-toxic”.
Still for that read-out and setting: the value for `COC(=O)C(C)CC(=O)C[C@@H](C)[C@H]1CC(=O)[C@@]2(C)C3=C(C(=O)C[C@]12C)[C@@]1(C)CCC(=O)C(C)(C)[C@@H]1C[C@@H]3O` (stereo partly specified) [METHYL GANODERATE D] was “Non-toxic”.
Consider `C[C@H](CCC(=O)O)[C@H]1CC(=O)[C@@]2(C)C3=C(C(=O)C[C@]12C)[C@@]1(C)CC[C@H](O)C(C)(C)[C@@H]1C[C@@H]3O` [LUCIDENIC ACID N], for which the Activity result in the data set with 3T3-L1 [1] is “Non-toxic”. The inhibition entry in the data set on 3T3-L1 [2] and in the data set with 3T3-L1 [3] was “Active” in each case.
As to `COC(=O)[C@H](C)CC(=O)C[C@@H](C)[C@H]1C[C@H](O)[C@@]2(C)C3=C(C(=O)C[C@]12C)[C@@]1(C)CCC(=O)C(C)(C)[C@@H]1C[C@@H]3O`, the Activity entry in the data set on 3T3-L1 [1] and in the data set with 3T3-L1 [4] was “Non-toxic” throughout.
In the case of `C[C@H](CC(=O)C[C@@H](C)[C@H]1CC(=O)[C@@]2(C)C3=C(C(=O)C[C@]12C)[C@@]1(C)CCC(=O)C(C)(C)[C@@H]1CC3=O)C(=O)O` [GANODERIC ACID E], in the data set on 3T3-L1 [1], the Activity entry is “Non-toxic”.
As to `CCCCOC(=O)CC[C@@H](C)[C@H]1CC(=O)[C@@]2(C)C3=C(C(=O)C[C@]12C)[C@@]1(C)CC[C@H](O)C(C)(C)[C@@H]1C[C@@H]3O` [BUTYL LUCIDENATE N], in the data set on 3T3-L1 [1], the Activity entry is on record as “Non-toxic”. The inhibition at 40 µg/mL with 3T3-L1 [5] was 56%. Further, the inhibition result with 3T3-L1 [2], in the data set with 3T3-L1 [3], with 3T3-L1 [7], in the data set with 3T3-L1 [8] and in the data set on 3T3-L1 [9] was “Active” in each case. Besides, the inhibition at 80 µg/mL with 3T3-L1 [6] is 38%.
With `CCCCOC(=O)C(C)CC(=O)C[C@@H](C)[C@H]1C[C@H](O)[C@@]2(C)C3=C(C(=O)C[C@]12C)[C@@]1(C)CCC(=O)C(C)(C)[C@@H]1C[C@@H]3O` (stereo partly specified) [BUTYL GANODERATE A], the Activity entry with 3T3-L1 [1] and in the data set on 3T3-L1 [4] was “Non-toxic” in each case. Moreover, the inhibition at 40 µg/mL in the data set on 3T3-L1 [5] amounted to 48%. For the same compound, the inhibition result in the data set with 3T3-L1 [2], in the data set on 3T3-L1 [3], with 3T3-L1 [7], in the data set with 3T3-L1 [8] and with 3T3-L1 [9] was “Active” throughout. In addition, the inhibition at 80 µg/mL in the data set with 3T3-L1 [6] was found to be 26%.
Consider `COC(=O)CC[C@@H](C)[C@H]1CC(=O)[C@@]2(C)C3=C(C(=O)C[C@]12C)[C@@]1(C)CCC(=O)C(C)(C)[C@@H]1CC3=O` [METHYL LUCIDENATE F], for which the Activity result in the data set with 3T3-L1 [1] is recorded as “Non-toxic”.
On to `COC(=O)CC[C@@H](C)[C@H]1CC(=O)[C@@]2(C)C3=C(C(=O)C[C@]12C)[C@@]1(C)CCC(=O)C(C)(C)[C@@H]1C[C@@H]3O` [METHYL LUCIDENATE A], for which the Activity result with 3T3-L1 [1] is recorded as “Non-toxic”.
As for `COC(=O)C(C)CC(=O)C[C@@H](C)[C@H]1CC(=O)[C@@]2(C)C3=C(C(=O)C[C@]12C)[C@@]1(C)CC[C@H](O)C(C)(C)[C@@H]1C[C@@H]3O` (stereo partly specified) [METHYL GANODERATE B], the Activity entry in the data set with 3T3-L1 [1] is recorded as “Non-toxic”. Also, the inhibition entry in the data set on 3T3-L1 [2] and in the data set with 3T3-L1 [3] was “Active” each time.
